# Columns and labels:
# Test in all cases: Test E preemergence
# nightshade = type: in vivo, Solanum ptycanthum; conditions: for Nightshade plant response rating: scale 0 to 100 (0 no effect, 100 complete control); for Plant response rating, Nightshade: scale 0 to 100, 0 no effect, 100 complete control
# Description: (§1) Seeds of plant species selected from corn (Zea mays), soybean (Glycine max), velvetleaf (Abutilon theophrasti), lambsquarters (Chenopodium album), wild poinsettia (Euphorbia heterophylla), palmer pigweed (Amaranthus palmeri), waterhemp (common waterhemp, Amaranthus rudis), surinam grass (Brachiaria decumbens), large (Lg) crabgrass (Digitaria sanguinalis), Brazilian crabgrass (Digitaria horizontalis), fall panicum (Panicum dichotomiflorum), giant foxtail (Setaria faberii), green foxtail (Setaria viridis), goosegrass (Eleusine indica), johnsongrass (Sorghum halepense), ragweed (common ragweed, Ambrosia elatior), barnyardgrass (Echinochloa crus-galli), sandbur (southern sandbur, Cenchrus echinatus), arrowleaf sida (Sida rhombifolia), Italian ryegrass (Lolium multiflorum), dayflower (Virginia (VA) dayflower, Commelina virginica), field bindweed (Convolvulus arvensis), morningglory (Ipomoea coccinea), nightshade (eastern black nightshade, Solanum ptycanthum), kochia (Kochia scoparia), yellow nutsedge (Cyperus esculentus), cocklebur (common cocklebur, Xanthium strumarium), smartweed (ladysthumb smartweed, and hairy beggarticks (Bidens pilosa), were planted into a silt loam soil and treated preemergence with test chemicals formulated in a non-phytotoxic solvent mixture which included a surfactant.
# (§2) At the same time, plants from these crop and weed species and also horseweed (Canada horseweed, Conyza canadensis), waterhemp_RES1, (ALS & Triazine resistant common waterhemp, Amaranthus rudis), and waterhemp_RES2, (ALS & HPPD resistant common waterhemp, Amaranthus rudis) were planted in pots containing Redi-Earth® planting medium (Scotts Company, 14111 Scottslawn Road, Marysville, Ohio 43041) comprising spaghnum peat moss, vermiculite, wetting agent and starter nutrients were treated with postemergence applications of test chemicals formulated in the same manner. Plants ranged in height from 2 to 18 cm for postemergence treatments (1- to 4-leaf stage). Treated plants and controls were maintained in a greenhouse for 14 to 21 days, after which time all species were compared to controls and visually evaluated. Plant response ratings, summarized in Table E, are based on a scale of 0 to 100 where 0 is no effect and 100 is complete control. A dash (-) response means no test result.
# velvetleaf = type: in vivo, Abutilon theophrasti; conditions: for Velvetleaf plant response rating: scale 0 to 100 (0 no effect, 100 complete control); for Plant response rating, Velvetleaf: scale 0 to 100, 0 no effect, 100 complete control
# How it was run: (§3)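 Response was scored visually on a 0-100 scale (100 = complete control) versus controls after 14 to 21 days in the greenhouse. Test chemicals, formulated with surfactant in a non-phytotoxic solvent mixture, had been applied preemergence to seeds in silt loam soil or postemergence to 1- to 4-leaf plants in potting medium.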
# soybean = type: in vivo, Glycine max; conditions: for Soybean plant response rating: scale 0 to 100 (0 no effect, 100 complete control); for Plant response rating, Soybean: scale 0 to 100, 0 no effect, 100 complete control
# Description: as §1, §2
# ragweed = type: in vivo, Ambrosia elatior; conditions: for Ragweed plant response rating: scale 0 to 100 (0 no effect, 100 complete control); for Plant response rating, Ragweed: scale 0 to 100, 0 no effect, 100 complete control
# How it was run: as §3
# large (Lg) crabgrass = type: in vivo, Digitaria sanguinalis; conditions: for Crabgrass, Large plant response rating: scale 0 to 100 (0 no effect, 100 complete control); for Plant response rating, Crabgrass, Large: scale 0 to 100, 0 no effect, 100 complete control
# Description: as §1, §2
# barnyardgrass = type: in vivo, Echinochloa crus-galli; conditions: for Barnyardgrass plant response rating: scale 0 to 100 (0 no effect, 100 complete control); for Plant response rating, Barnyardgrass: scale 0 to 100, 0 no effect, 100 complete control
# Description: as §1, §2
# palmer pigweed = type: in vivo, Amaranthus palmeri; conditions: for Pigweed, Palmer plant response rating: scale 0 to 100 (0 no effect, 100 complete control); for Plant response rating, Pigweed, Palmer: scale 0 to 100, 0 no effect, 100 complete control
# How it was run: as §3
# corn = type: in vivo, Zea mays; conditions: for Corn plant response rating: scale 0 to 100 (0 no effect, 100 complete control); for Plant response rating, Corn: scale 0 to 100, 0 no effect, 100 complete control
# Description: as §1, §2
# morningglory = type: in vivo, Ipomoea coccinea; conditions: for Morningglory plant response rating: scale 0 to 100 (0 no effect, 100 complete control); for Plant response rating, Morningglory: scale 0 to 100, 0 no effect, 100 complete control
# How it was run: as §3
# dayflower = type: in vivo, Commelina virginica; conditions: for Dayflower, VA plant response rating: scale 0 to 100 (0 no effect, 100 complete control); for Plant response rating, Dayflower, VA: scale 0 to 100, 0 no effect, 100 complete control
# How it was run: as §3
# fall panicum = type: in vivo, Panicum dichotomiflorum; conditions: for Panicum, Fall plant response rating: scale 0 to 100 (0 no effect, 100 complete control); for Plant response rating, Panicum, Fall: scale 0 to 100, 0 no effect, 100 complete control
# Description: as §1, §2
smiles,measurement,setting,value
N#Cc1cccc(Oc2ncc(F)cn2)c1-n1cc(Cl)cn1 [Compound 73],Nightshade plant response rating,nightshade; 16 g ai/ha,65
same,Nightshade plant response rating,nightshade; 31 g ai/ha,80
same,Nightshade plant response rating,nightshade; 62 g ai/ha,90
same,"Plant response rating, Nightshade",nightshade; 125 g ai/ha,98
same,"Plant response rating, Nightshade",nightshade; 250 g ai/ha,100
same,Velvetleaf plant response rating,velvetleaf; 16 g ai/ha,0
same,Velvetleaf plant response rating,velvetleaf; 31 g ai/ha,20
same,Velvetleaf plant response rating,velvetleaf; 62 g ai/ha,60
same,"Plant response rating, Velvetleaf",velvetleaf; 125 g ai/ha,70
same,"Plant response rating, Velvetleaf",velvetleaf; 250 g ai/ha,95
same,Soybean plant response rating,soybean; 16 g ai/ha,15
same,Soybean plant response rating,soybean; 31 g ai/ha,25
same,Soybean plant response rating,soybean; 62 g ai/ha,25
same,"Plant response rating, Soybean",soybean; 125 g ai/ha,70
same,"Plant response rating, Soybean",soybean; 250 g ai/ha,80
same,Ragweed plant response rating,ragweed; 16 g ai/ha,0
same,Ragweed plant response rating,ragweed; 31 g ai/ha,5
same,Ragweed plant response rating,ragweed; 62 g ai/ha,30
same,"Plant response rating, Ragweed",ragweed; 125 g ai/ha,60
same,"Plant response rating, Ragweed",ragweed; 250 g ai/ha,80
same,"Crabgrass, Large plant response rating",large (Lg) crabgrass; 16 g ai/ha,0
same,"Crabgrass, Large plant response rating",large (Lg) crabgrass; 31 g ai/ha,30
same,"Crabgrass, Large plant response rating",large (Lg) crabgrass; 62 g ai/ha,100
same,"Plant response rating, Crabgrass, Large",large (Lg) crabgrass; 125 g ai/ha,100
same,"Plant response rating, Crabgrass, Large",large (Lg) crabgrass; 250 g ai/ha,100
same,Barnyardgrass plant response rating,"barnyardgrass; 16 g ai/ha, preemergence",0
same,Barnyardgrass plant response rating,"barnyardgrass; 31 g ai/ha, preemergence",0
same,"Plant response rating, Barnyardgrass","barnyardgrass; Preemergence, 62 g ai/ha",0
same,"Plant response rating, Barnyardgrass","barnyardgrass; preemergence, 125 g ai/ha",20
same,"Plant response rating, Barnyardgrass","barnyardgrass; preemergence, 250 g ai/ha",75
same,"Pigweed, Palmer plant response rating",palmer pigweed; 16 g ai/ha,0
same,"Pigweed, Palmer plant response rating",palmer pigweed; 31 g ai/ha,75
same,"Pigweed, Palmer plant response rating",palmer pigweed; 62 g ai/ha,100
same,"Plant response rating, Pigweed, Palmer",palmer pigweed; 125 g ai/ha,100
same,"Plant response rating, Pigweed, Palmer",palmer pigweed; 250 g ai/ha,100
same,Corn plant response rating,corn; 16 g ai/ha,0
same,Corn plant response rating,corn; 31 g ai/ha,0
same,Corn plant response rating,corn; 62 g ai/ha,0
same,"Plant response rating, Corn",corn; 125 g ai/ha,0
same,"Plant response rating, Corn",corn; 250 g ai/ha,5
same,Morningglory plant response rating,morningglory; 16 g ai/ha,0
same,Morningglory plant response rating,morningglory; 31 g ai/ha,0
same,Morningglory plant response rating,morningglory; 62 g ai/ha,10
same,"Plant response rating, Morningglory",morningglory; 125 g ai/ha,30
same,"Plant response rating, Morningglory",morningglory; 250 g ai/ha,60
same,"Dayflower, VA plant response rating",dayflower; 16 g ai/ha,0
same,"Dayflower, VA plant response rating",dayflower; 31 g ai/ha,0
same,"Dayflower, VA plant response rating",dayflower; 62 g ai/ha,25
same,"Plant response rating, Dayflower, VA",dayflower; 125 g ai/ha,65
same,"Plant response rating, Dayflower, VA",dayflower; 250 g ai/ha,95
same,"Panicum, Fall plant response rating",fall panicum; 16 g ai/ha,0
same,"Panicum, Fall plant response rating",fall panicum; 31 g ai/ha,40
same,"Panicum, Fall plant response rating",fall panicum; 62 g ai/ha,98
same,"Plant response rating, Panicum, Fall",fall panicum; 125 g ai/ha,98
same,"Plant response rating, Panicum, Fall",fall panicum; 250 g ai/ha,100
"N#Cc1cccc(Oc2ncc(Cl)cn2)c1-n1cc(C(F)(F)F)cn1 [Compound 58, 3-[(5-chloro-2-pyrimidinyl)oxy]-2-[4-(trifluoromethyl)-1H-pyrazol-1-yl]benzonitrile]",Nightshade plant response rating,nightshade; 16 g ai/ha,90
same,Nightshade plant response rating,nightshade; 31 g ai/ha,98
same,Nightshade plant response rating,nightshade; 62 g ai/ha,100
same,"Plant response rating, Nightshade",nightshade; 125 g ai/ha,100
same,"Plant response rating, Nightshade",nightshade; 250 g ai/ha,100
same,Velvetleaf plant response rating,velvetleaf; 16 g ai/ha,40
same,Velvetleaf plant response rating,velvetleaf; 31 g ai/ha,70
same,Velvetleaf plant response rating,velvetleaf; 62 g ai/ha,90
same,"Plant response rating, Velvetleaf",velvetleaf; 125 g ai/ha,100
same,"Plant response rating, Velvetleaf",velvetleaf; 250 g ai/ha,100
same,Soybean plant response rating,soybean; 16 g ai/ha,0
same,Soybean plant response rating,soybean; 31 g ai/ha,0
same,Soybean plant response rating,soybean; 62 g ai/ha,60
same,"Plant response rating, Soybean",soybean; 125 g ai/ha,75
same,"Plant response rating, Soybean",soybean; 250 g ai/ha,95
same,Ragweed plant response rating,ragweed; 16 g ai/ha,0
same,Ragweed plant response rating,ragweed; 31 g ai/ha,0
same,Ragweed plant response rating,ragweed; 62 g ai/ha,5
same,"Plant response rating, Ragweed",ragweed; 125 g ai/ha,50
same,"Plant response rating, Ragweed",ragweed; 250 g ai/ha,85
same,"Crabgrass, Large plant response rating",large (Lg) crabgrass; 16 g ai/ha,75
same,"Crabgrass, Large plant response rating",large (Lg) crabgrass; 31 g ai/ha,100
same,"Crabgrass, Large plant response rating",large (Lg) crabgrass; 62 g ai/ha,100
same,"Plant response rating, Crabgrass, Large",large (Lg) crabgrass; 125 g ai/ha,100
same,"Plant response rating, Crabgrass, Large",large (Lg) crabgrass; 250 g ai/ha,100
same,Barnyardgrass plant response rating,"barnyardgrass; 16 g ai/ha, preemergence",20
same,Barnyardgrass plant response rating,"barnyardgrass; 31 g ai/ha, preemergence",40
same,"Plant response rating, Barnyardgrass","barnyardgrass; Preemergence, 62 g ai/ha",90
same,"Plant response rating, Barnyardgrass","barnyardgrass; preemergence, 125 g ai/ha",95
same,"Plant response rating, Barnyardgrass","barnyardgrass; preemergence, 250 g ai/ha",98
same,"Pigweed, Palmer plant response rating",palmer pigweed; 16 g ai/ha,100
same,"Pigweed, Palmer plant response rating",palmer pigweed; 31 g ai/ha,100
same,"Pigweed, Palmer plant response rating",palmer pigweed; 62 g ai/ha,100
same,"Plant response rating, Pigweed, Palmer",palmer pigweed; 125 g ai/ha,100
same,"Plant response rating, Pigweed, Palmer",palmer pigweed; 250 g ai/ha,100
same,Corn plant response rating,corn; 16 g ai/ha,0
same,Corn plant response rating,corn; 31 g ai/ha,5
same,Corn plant response rating,corn; 62 g ai/ha,40
same,"Plant response rating, Corn",corn; 125 g ai/ha,65
same,"Plant response rating, Corn",corn; 250 g ai/ha,70
same,Morningglory plant response rating,morningglory; 31 g ai/ha,50
same,Morningglory plant response rating,morningglory; 62 g ai/ha,100
same,"Plant response rating, Morningglory",morningglory; 125 g ai/ha,100
same,"Plant response rating, Morningglory",morningglory; 250 g ai/ha,100
same,"Dayflower, VA plant response rating",dayflower; 16 g ai/ha,5
same,"Dayflower, VA plant response rating",dayflower; 31 g ai/ha,20
same,"Dayflower, VA plant response rating",dayflower; 62 g ai/ha,70
same,"Plant response rating, Dayflower, VA",dayflower; 125 g ai/ha,98
same,"Plant response rating, Dayflower, VA",dayflower; 250 g ai/ha,98
same,"Panicum, Fall plant response rating",fall panicum; 16 g ai/ha,95
same,"Panicum, Fall plant response rating",fall panicum; 31 g ai/ha,98
same,"Panicum, Fall plant response rating",fall panicum; 62 g ai/ha,100
same,"Plant response rating, Panicum, Fall",fall panicum; 125 g ai/ha,100
same,"Plant response rating, Panicum, Fall",fall panicum; 250 g ai/ha,100

# From US9695155B2, “Herbicidal substituted pyrimidinyloxy benzene compounds” (E. I. DU PONT DE NEMOURS AND COMPANY, priority 2013, dated 2017)
